#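 1) Cells in 96-well plates. 2) Compound, 48 h, 5 concentrations. 3) Linear interpolation between surrounding doses. 4) Unreached endpoint = highest concentration. At the GI50, growth is halved.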 Calls of active or inactive are those of the source. Rule as the data show it: active = GI50 up to about 1.1 µM and inactive = higher.
# Legend:
# Experiment in all cases: growth of human tumour cells (NCI), 48 h
# [1] = test system: CCRF-CEM
# [2] = test system: HCC 2998
# [3] = test system: HL-60
# [4] = test system: HT-29
# [5] = test system: K562
# [6] = test system: M14
# [7] = test system: MCF7
# [8] = test system: MDA-MB-435
# [9] = test system: Malme-3M
# [10] = test system: NCI-H23
# [11] = test system: NCI-H460
# [12] = test system: OVCAR-8
# [13] = test system: PC-3
# [14] = test system: RXF 393
# [15] = test system: SF-295
# [16] = test system: SK-OV-3
# [17] = test system: SN12C
# [18] = test system: SR
# [19] = test system: TK-10
# [20] = test system: UACC-257
Compound,GI50 [1],GI50 [2],GI50 [3],GI50 [4],GI50 [5],GI50 [6],GI50 [7],GI50 [8],GI50 [9],GI50 [10],GI50 [11],GI50 [12],GI50 [13],GI50 [14],GI50 [15],GI50 [16],GI50 [17],GI50 [18],GI50 [19],GI50 [20]
CC(C)(C)OC(=O)NC1CC2(C=C(Br)C(=O)C(Br)=C2)OC1=O (stereo not given),0.165 µM (active),11.6 µM (inactive),2.47 µM (inactive),5.74 µM (inactive),2.56 µM (inactive),7.14 µM (inactive),11.6 µM (inactive),7.71 µM (inactive),6.24 µM (inactive),7.85 µM (inactive),18.4 µM (inactive),7.14 µM (inactive),13.9 µM (inactive),3.58 µM (inactive),16.4 µM (inactive),17.3 µM (inactive),7.33 µM (inactive),0.955 µM (active),5.38 µM (inactive),5.4 µM (inactive)
CO[C@H]1O[C@@H]2CO[C@@H](c3ccccc3)O[C@H]2[C@@H]2CC=CCC[C@]12O,31 µM (inactive),18.5 µM (inactive),24.8 µM (inactive),40 µM (inactive),33.9 µM (inactive),72.6 µM (inactive),42.6 µM (inactive),45.7 µM (inactive),12.6 µM (inactive),36.6 µM (inactive),35.7 µM (inactive),73.1 µM (inactive),40.9 µM (inactive),62.1 µM (inactive),74.5 µM (inactive),> 100 µM (inactive),61.8 µM (inactive),30.8 µM (inactive),93.5 µM (inactive),35.6 µM (inactive)
N=C(N)N/N=C/c1c(-c2ccc([N+](=O)[O-])cc2)nc2n1CCS2,1.89 µM (inactive),6.32 µM (inactive),8.36 µM (inactive),14.5 µM (inactive),3.86 µM (inactive),14.5 µM (inactive),6.9 µM (inactive),14.8 µM (inactive),17.9 µM (inactive),14.3 µM (inactive),15.3 µM (inactive),11 µM (inactive),13.2 µM (inactive),8.51 µM (inactive),18 µM (inactive),20.3 µM (inactive),7 µM (inactive),2.25 µM (inactive),17.4 µM (inactive),18.5 µM (inactive)
OCCN(CCO)c1ccc2c(C(F)(F)F)cc(C(F)(F)F)nc2n1,> 100 µM (inactive),> 100 µM (inactive),> 100 µM (inactive),> 100 µM (inactive),> 100 µM (inactive),> 100 µM (inactive),> 100 µM (inactive),> 100 µM (inactive),> 100 µM (inactive),> 100 µM (inactive),> 100 µM (inactive),> 77.6 µM (inactive),> 100 µM (inactive),> 100 µM (inactive),> 100 µM (inactive),> 100 µM (inactive),> 100 µM (inactive),> 100 µM (inactive),> 100 µM (inactive),> 100 µM (inactive)
CCOC(=O)C(NC(=O)c1ccccc1)(Nc1ccc(S(=O)(=O)Nc2nc(C)cc(C)n2)cc1)C(F)(F)F (stereo not given),> 100 µM (inactive),> 100 µM (inactive),> 100 µM (inactive),> 100 µM (inactive),> 100 µM (inactive),> 100 µM (inactive),> 100 µM (inactive),> 100 µM (inactive),> 100 µM (inactive),> 100 µM (inactive),> 100 µM (inactive),> 100 µM (inactive),> 100 µM (inactive),> 100 µM (inactive),> 100 µM (inactive),0.778 µM (active),> 100 µM (inactive),> 100 µM (inactive),> 100 µM (inactive),> 100 µM (inactive)

# — ChEMBL document CHEMBL1201862, “PubChem BioAssay data set” (2004)
